In general, LC50 refers to the concentration lethal to half of the exposed cells or organisms. Read a high LC50 as lower toxicity.

From ChEMBL document CHEMBL1147372, “Bioactive metabolites from Sicilian marine fennel, Crithmum maritimum” (J Nat Prod, 1993) come the findings set out here.

Values after ≈ are worked out from the molar mass of the structure shown.

A short description of the series: Toxicity in Artemia salina after 24 hrs. It is filed as organism-based. As to conditions: in vivo.
In turn, `C=C[C@@H](O)C#CC#C[C@@H](O)/C=C\CCCCCCC` [FALCARINDIOL] returned an LC50 at 24 h of 3.32 µg/mL (≈ 12.8 µM).

As for `C=C[C@H](O)C#CC#CC/C=C\CCCCCCC` [FALCARINOL], the median lethal concentration (LC50) at 24 h stood at 0.67 µg/mL (≈ 2.74 µM).

The compound `COc1cc(C=O)ccc1OC/C=C(\C)CCC=C(C)C` [GERANYLOXYVANILLIN] registered an LC50 at 24 h of 85.8 µg/mL (≈ 298 µM).
